Test results taken from patent EP4603105A1, “PHARMACEUTICAL COMPOSITION CONTAINING CYCLIC COMPOUND HAVING SELECTIVE KRAS INHIBITORY EFFECT AGAINST HRAS AND NRAS” (CHUGAI SEIYAKU KABUSHIKI KAISHA, priority 2022, dated 2024).

Legend:
[1] = tested on: human lung cancer strain NCI-H441; assay type: cell-based
Method in brief: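 Proliferation was scored by […] measured after the reagent was added to cultures kept at 37°C in 5% carbon dioxide.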

HRAS wild-type protein = HRAS wild-type protein (Homo sapiens, UniProt P01112); assay: Binding to HRAS by surface plasmon resonance (SPR), KD and KD ratio to KRAS; conditions: ratio of the KD value with respect to HRAS wild-type protein to the KD value with respect to KRAS
HRAS wild-type protein, sequence (P01112 whole entry): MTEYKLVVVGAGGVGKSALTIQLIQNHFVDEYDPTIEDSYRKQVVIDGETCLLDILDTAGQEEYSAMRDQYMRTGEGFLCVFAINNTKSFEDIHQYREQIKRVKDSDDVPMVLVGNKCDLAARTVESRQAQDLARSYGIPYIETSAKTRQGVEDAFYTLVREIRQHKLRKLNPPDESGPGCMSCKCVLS
Method in brief: (§1)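 Single-cycle kinetics on GDP-loaded biotin-Avi RAS captured to ~100–300 RU; 75 s ascending injections, 100 µL/min, 30°C. HBS pH 7.4 + 10 mM MgCl2/10 µM GDP/4% DMSO. 1:1 fit, KD.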

[2] = target: GDP-bound NRAS wild-type protein (Homo sapiens, UniProt P01111); assay: Binding to NRAS by surface plasmon resonance (SPR), KD and KD ratio to KRAS; conditions: ratio of the KD value with respect to GDP-bound NRAS wild-type protein to the KD value with respect to KRAS
GDP-bound NRAS wild-type protein, sequence (P01111 whole entry): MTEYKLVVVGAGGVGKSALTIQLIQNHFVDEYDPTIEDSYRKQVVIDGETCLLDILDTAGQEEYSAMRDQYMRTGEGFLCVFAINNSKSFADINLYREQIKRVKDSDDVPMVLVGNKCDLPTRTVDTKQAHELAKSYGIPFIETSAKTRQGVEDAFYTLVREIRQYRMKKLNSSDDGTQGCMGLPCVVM
Method in brief: as §1

Row | SMILES | IC50 [1] [nM] | HRAS /KRAS (HRAS wild-type protein) | NRAS /KRAS [2]
1 | CC[C@@H]1C[C@H]2C(=O)NC3(CCCC3)C(=O)N(C)[C@@H](C3CCCC3)C(=O)N(C)[C@H](C(=O)N(C)CC)CC(=O)N(C)[C@@H](C)C(=O)N[C@@H]([C@@H](C)CC)C(=O)N(C)CC(=O)N(C)[C@H]3C/C=C\CCN(C3=O)[C@@H](Cc3ccc(C(F)(F)F)cc3)C(=O)N(C)CC(=O)N[C@@H](CCc3cc(F)c(C(F)(F)F)c(F)c3)C(=O)N2C1 [PP2271] | 60.6 | A (a compound having 10 or more and less than 20 is denoted as A) | A (a compound having 10 or more and less than 20 is denoted as A)
2 | CCC[C@@H]1C[C@H]2C(=O)NC3(CCCC3)C(=O)N(C)[C@@H](C3CCCC3)C(=O)N(C)[C@H](C(=O)N(C)CC)CC(=O)N(C)[C@@H](C)C(=O)N[C@@H]([C@@H](C)CC)C(=O)N(C)CC(=O)N(C)[C@H]3C/C=C\CCN(C3=O)[C@@H](Cc3ccc(C(F)(F)F)cc3)C(=O)N(C)CC(=O)N[C@@H](CCc3cc(F)c(C(F)(F)F)c(F)c3)C(=O)N2C1 [PP2272] | 106 | A (a compound having 10 or more and less than 20 is denoted as A) | AA (a compound having 20 or more is denoted as AA)
3 | CCC[C@@H]1C[C@H]2C(=O)NC3(CC(C)(C)C3)C(=O)N(C)[C@@H](C3CCCC3)C(=O)N(C)[C@H](C(=O)N(C)C)CC(=O)N(C)[C@@H](C)C(=O)N[C@@H]([C@@H](C)CC)C(=O)N(C)CC(=O)N(C)[C@H]3C/C=C\CCN(C3=O)[C@@H](Cc3ccc(C(F)(F)F)cc3)C(=O)N(C)CC(=O)N[C@@H](CCc3cc(F)c(C(F)(F)F)c(F)c3)C(=O)N2C1 [PP2273] | 16 | A (a compound having 10 or more and less than 20 is denoted as A) | AA (a compound having 20 or more is denoted as AA)
4 | CCC[C@@H]1C[C@H]2C(=O)NC3(CC(C)(C)C3)C(=O)N(C)[C@@H](C3CCCC3)C(=O)N(C)[C@H](C(=O)N(C)C)CC(=O)N(C)[C@@H](COC)C(=O)N[C@@H]([C@@H](C)CC)C(=O)N(C)CC(=O)N(C)[C@H]3C/C=C\CCN(C3=O)[C@@H](Cc3ccc(C(F)(F)F)cc3)C(=O)N(C)CC(=O)N[C@@H](CCc3ccc(C(F)(F)F)c(Cl)c3)C(=O)N2C1 [PP2275] | 12.2 | A (a compound having 10 or more and less than 20 is denoted as A) | A (a compound having 10 or more and less than 20 is denoted as A)
5 | CCC[C@H]1C(=O)N[C@@H]([C@@H](C)CC)C(=O)N(C)CC(=O)N(C)[C@H]2C/C=C\CCN(C2=O)[C@@H](Cc2ccc(C(F)(F)F)cc2)C(=O)N(C)CC(=O)N[C@@H](CCc2ccc(C(F)(F)F)c(OC)c2)C(=O)N2C[C@H](OCC)C[C@H]2C(=O)N(C)C2(CCC2)C(=O)N(C)[C@@H](C2CCCC2)C(=O)N(C)[C@H](C(=O)N(C)C)CC(=O)N1C [PP2312] | 1.6 | B (a compound having 3 or more and less than 10 is denoted as B) | A (a compound having 10 or more and less than 20 is denoted as A)
6 | CCC[C@H]1C(=O)N[C@@H]([C@@H](C)CC)C(=O)N(C2CC2)CC(=O)N(C)[C@H]2C/C=C\CCN(C2=O)[C@@H](Cc2ccc(C(F)(F)F)cc2)C(=O)N(C)CC(=O)N[C@@H](CCc2ccc(C(F)(F)F)c(OC)c2)C(=O)N2C[C@H](OCC)C[C@H]2C(=O)N(C)C2(CCC2)C(=O)N(C)[C@@H](C(CC)CC)C(=O)N(C)[C@H](C(=O)N(C)C)CC(=O)N1C [PP2313] | 7.4 | A (a compound having 10 or more and less than 20 is denoted as A) | AA (a compound having 20 or more is denoted as AA)
7 | CCC[C@H]1C(=O)N[C@@H]([C@@H](C)CC)C(=O)N(C2CC2)CC(=O)N(C)[C@H]2C/C=C\CCN(C2=O)[C@@H](Cc2ccc(C(F)(F)F)cc2)C(=O)N(C)CC(=O)N[C@@H](CCc2ccc(C(F)(F)F)c(OC)c2)C(=O)N2C[C@H](OCC)C[C@H]2C(=O)N(C)C2(CCC2)C(=O)N(C)[C@@H](C2CCCC2)C(=O)N(C)[C@H](C(=O)N(C)C)CC(=O)N1C [PP2316] | 1.6 | A (a compound having 10 or more and less than 20 is denoted as A) | A (a compound having 10 or more and less than 20 is denoted as A)
8 | CCC[C@H]1C(=O)N[C@@H]([C@@H](C)CC)C(=O)N2CCC[C@H]2C(=O)N(C)[C@H]2C/C=C\CCN(C2=O)[C@@H](Cc2ccc(C(F)(F)F)cc2)C(=O)N(C)CC(=O)N[C@@H](CCc2ccc(C(F)(F)F)c(OC)c2)C(=O)N2C[C@H](OCC)C[C@H]2C(=O)N(C)C2(CCC2)C(=O)N(C)[C@@H](C(CC)CC)C(=O)N(C)[C@H](C(=O)N(C)C)CC(=O)N1C [PP2317] | 12.5 | A (a compound having 10 or more and less than 20 is denoted as A) | A (a compound having 10 or more and less than 20 is denoted as A)
9 | CCOC[C@H]1C(=O)N[C@@H]([C@@H](C)CC)C(=O)N2CCC[C@H]2C(=O)N(C)[C@H]2C/C=C\CCN(C2=O)[C@@H](Cc2ccc(C(F)(F)F)cc2)C(=O)N(C)CC(=O)N[C@@H](CCc2ccc(C(F)(F)F)c(OC)c2)C(=O)N2C[C@H](OCC)C[C@H]2C(=O)N(C)C2(CCC2)C(=O)N(C)[C@@H](C(CC)CC)C(=O)N(C)[C@H](C(=O)N(C)C)CC(=O)N1C [PP2319] | 9.6 | A (a compound having 10 or more and less than 20 is denoted as A) | AA (a compound having 20 or more is denoted as AA)
10 | CCCOC[C@H]1C(=O)N[C@@H]([C@@H](C)CC)C(=O)N2CCC[C@H]2C(=O)N(C)[C@H]2C/C=C\CCN(C2=O)[C@@H](Cc2ccc(C(F)(F)F)cc2)C(=O)N(C)CC(=O)N[C@@H](CCc2ccc(C(F)(F)F)c(OC)c2)C(=O)N2C[C@H](OCC)C[C@H]2C(=O)N(C)C2(CCC2)C(=O)N(C)[C@@H](C2CCCC2)C(=O)N(C)[C@H](C(=O)N(C)C)CC(=O)N1C [PP2322] | 5.8 | B (a compound having 3 or more and less than 10 is denoted as B) | A (a compound having 10 or more and less than 20 is denoted as A)
11 | CCCOC[C@H]1C(=O)N[C@@H]([C@@H](C)CC)C(=O)N(C2CC2)CC(=O)N(C)[C@H]2C/C=C\CCN(C2=O)[C@@H](Cc2ccc(C)cc2)C(=O)N(C)CC(=O)N[C@@H](CCc2ccc(C(F)(F)F)c(OC)c2)C(=O)N2C[C@H](OCC)C[C@H]2C(=O)N(C)C2(CCC2)C(=O)N(C)[C@@H](C(CC)CC)C(=O)N(C)[C@H](C(=O)N(C)C)CC(=O)N1C [PP2327] | 9.9 | A (a compound having 10 or more and less than 20 is denoted as A) | A (a compound having 10 or more and less than 20 is denoted as A)
12 | CCC[C@H]1C(=O)N[C@@H]([C@@H](C)CC)C(=O)N(C2CC2)CC(=O)N(C)[C@H]2C/C=C\CCN(C2=O)[C@@H](Cc2ccc(C)cc2)C(=O)N(C)CC(=O)N[C@@H](CCc2ccc(C(F)(F)F)c(OC)c2)C(=O)N2C[C@H](OCC)C[C@H]2C(=O)N(C)C2(CCC2)C(=O)N(C)[C@@H](C2CCCC2)C(=O)N(C)[C@H](C(=O)N(C)C)CC(=O)N1C [PP2328] | 2.2 | A (a compound having 10 or more and less than 20 is denoted as A) | A (a compound having 10 or more and less than 20 is denoted as A)
